Test results reported in patent US10906940B2, “Antimicrobial peptides, pharmaceutical compositions, and methods of use thereof” (priority 2014, dated 2021).
≈ marks a conversion by molar mass, not a printed value. Where a SMILES comes first, the peptide text is derived from it. Bridges are numbered along the chain shown (N, C = ends). [ ]: non-standard residue; d: D form. The star is where a group is joined. Pentadecanoyl = CCCCCCCCCCCCCCC(=O)*; Tridecanoyl = CCCCCCCCCCCCC(=O)*; dOrn = NCCC[C@@H](N)C(=O)O

Columns and labels:
[1] = system: Salmonella CVM 40118 (oxa-1); format: cell-based
Text: (§1) The same MIC assay as in Example 6 was used to determine the antimicrobial susceptibility of Compound A, L-form (FIG. 15), and several variants. One variant was Compound A, D-form, with D-Lysine at position 7. Compound B is a variant in the fatty acid chain, with a fatty acid chain composition of C15H29O, and having D-Lys at position 7. Compound C is a variant in the fatty acid chain with a fatty acid chain composition of C11H21O, and having D-Lys at position 7. Variant D is a sequence variant with Phe at position 6 of the cyclic peptide, and having D-Lys at position 7. All variants were chemically synthesized.

[2] = system: Serratia marcescens SBJ-8283; format: cell-based; conditions: SBJ-8283
Text: as §1

[3] = system: Salmonella CVM 1290 (cmy2); format: cell-based
Text: as §1

[4] = system: Serratia marcescens SAMN 04276914; format: cell-based; conditions: SAMN 04276914
Text: as §1

[5] = system: Serratia marcescens SBJ-9047; format: cell-based; conditions: SBJ-9047
Text: as §1

[6] = system: Enterobacter cloacae SBJ-9395; format: cell-based; conditions: SBJ-9395
Text: as §1

[7] = system: Salmonella CVM 40119 (tem 12); format: cell-based
Text: as §1

[8] = system: Serratia marcescens SAMN 04276915; format: cell-based; conditions: SAMN 04276915
Text: as §1

[9] = system: Serratia marcescens SAMN04022954; format: cell-based; conditions: SAMN04022954
Text: as §1

[10] = system: E. cloacae CVM 15101 (P99); format: cell-based, Enterobacter cloacae
Text: as §1

[11] = system: E. coli CVM 40137 (DHA-1); format: cell-based, Escherichia coli
Text: as §1

[12] = system: E. coli CVM 40131 (ctx-m-2); format: cell-based, Escherichia coli
Text: as §1

[13] = system: E. coli CVM 40128 (oxa-7); format: cell-based, Escherichia coli
Text: as §1

[14] = system: E. coli CVM 40143 (act-1); format: cell-based, Escherichia coli
Text: as §1

[15] = system: E. coli CVM 40129 (oxa-5); format: cell-based, Escherichia coli
Text: as §1

[16] = system: E. coli CVM 35778 (ctx-m-2); format: cell-based, Escherichia coli
Text: as §1

[17] = system: E. coli CVM 40127 (oxa-2); format: cell-based, Escherichia coli
Text: as §1

[18] = system: E. faecalis BAA-2365; test: microbe, parasite or virus in culture; format: cell-based, Enterococcus faecalis; conditions: BAA-2365
Text: as §1

[19] = system: E. faecalis ATCC 51575; test: microbe, parasite or virus in culture; format: cell-based, Enterococcus faecalis; conditions: ATCC 51575
Text: as §1

[20] = system: P. aeruginosa CVM 40144 (PER-1); format: cell-based, Pseudomonas aeruginosa
Text: as §1

[21] = system: S. aureus 12; test: microbe, parasite or virus in culture; format: cell-based, Staphylococcus aureus; conditions: 12
Text: as §1

[22] = system: S. aureus 10; test: microbe, parasite or virus in culture; format: cell-based, Staphylococcus aureus; conditions: 10
Text: as §1

[23] = system: S. aureus 8; test: microbe, parasite or virus in culture; format: cell-based, Staphylococcus aureus; conditions: 8
Text: as §1

[24] = system: S. aureus 19; test: microbe, parasite or virus in culture; format: cell-based, Staphylococcus aureus; conditions: 19
Text: as §1

[25] = system: S. aureus 14; test: microbe, parasite or virus in culture; format: cell-based, Staphylococcus aureus; conditions: 14
Text: as §1

[26] = system: S. aureus 4; test: microbe, parasite or virus in culture; format: cell-based, Staphylococcus aureus; conditions: 4
Text: as §1

[27] = system: S. aureus 2; test: microbe, parasite or virus in culture; format: cell-based, Staphylococcus aureus; conditions: 2
Text: as §1

[28] = system: S. aureus 6; test: microbe, parasite or virus in culture; format: cell-based, Staphylococcus aureus; conditions: 6
Text: as §1

[29] = system: E. faecium ATCC 2320; test: microbe, parasite or virus in culture; format: cell-based; conditions: ATCC 2320
Text: as §1

[30] = system: E. faecium ATCC 700221; test: microbe, parasite or virus in culture; format: cell-based; conditions: ATCC 700221
Text: as §1

[31] = system: E. faecium BAA-2318; test: microbe, parasite or virus in culture; format: cell-based; conditions: BAA-2318
Text: as §1

[32] = system: K. pneumonia CVM 15105 (shv5); format: cell-based, Klebsiella pneumoniae
Text: as §1

[33] = system: K. pneumonia CVM 40142 (ges-1); format: cell-based, Klebsiella pneumoniae
Text: as §1

[34] = system: K. pneumoniae CVM 15102 (shv5); format: cell-based, Klebsiella pneumoniae
Text: as §1

[35] = system: K. pneumoniae CVM 9246 (shv18, oxa2); format: cell-based, Klebsiella pneumoniae
Text: as §1

[36] = system: S. Newport CVM 40115 (cmy 2); format: cell-based, Salmonella
Text: as §1

[37] = system: S. Heidelberg CVM 40140 (cmy-2); format: cell-based, Salmonella
Text: as §1

[38] = system: S. Typhimurium CVM 40117 (ctx-m-5); format: cell-based, Salmonella
Text: as §1

[39] = system: S. Keur massar CVM 40135 (shv12); format: cell-based, Salmonella
Text: as §1

[40] = system: S. Bareilly CVM40145 (ACC-1); format: cell-based, Salmonella
Text: as §1

| SMILES | MIC [1] [µg/mL] | MIC [3] [µg/mL] | MIC [4] [µg/mL] | MIC [7] [µg/mL] | MIC [8] [µg/mL] | MIC [9] [µg/mL] | MIC [10] [µg/mL] | MIC [11] [µg/mL] | MIC [12] [µg/mL] | MIC [13] [µg/mL] | MIC [14] [µg/mL] | MIC [15] [µg/mL] | MIC [16] [µg/mL] | MIC [17] [µg/mL] | MIC [18] [µg/mL] | MIC [19] [µg/mL] | MIC [20] [µg/mL] | MIC [29] [µg/mL] | MIC [30] [µg/mL] | MIC [31] [µg/mL] | also measured |
| --- | --- | --- | --- | --- | --- | --- | --- | --- | --- | --- | --- | --- | --- | --- | --- | --- | --- | --- | --- | --- | --- |
| CCCCCCCCCCCCCCC(=O)N[C@H](CCCN)C(=O)N[C@H](C(=O)N[C@@H]1C(=O)N[C@H](CCCN)C(=O)N[C@@H](CO)C(=O)N[C@@H](Cc2ccc(O)cc2)C(=O)N[C@H](CCCCN)C(=O)N[C@H](CO)C(=O)N[C@@H]([C@@H](C)CC)C(=O)N2CCC[C@H]2C(=O)N[C@@H]([C@@H](C)CC)C(=O)N2CCC[C@H]2C(=O)N[C@@H]([C@@H](C)CC)C(=O)O[C@@H]1C)C(C)C [Compound B] (Pentadecanoyl-[dOrn]VT[dOrn]SY[dK][dS]IPIPI; ester 3-C; N-terminus assumed) | 4 (≈ 2.42 µM) | 16 (≈ 9.68 µM) | 64 (≈ 38.7 µM) | 8 (≈ 4.84 µM) | ≥128 | ≥128 | 8 (≈ 4.84 µM) | 16 (≈ 9.68 µM) | 8 (≈ 4.84 µM) | 8 (≈ 4.84 µM) | 16 (≈ 9.68 µM) | 8 (≈ 4.84 µM) | 32 (≈ 19.4 µM) | 16 (≈ 9.68 µM) | 4 (≈ 2.42 µM) | 8 (≈ 4.84 µM) | 32 (≈ 19.4 µM) | 4 (≈ 2.42 µM) | 4 (≈ 2.42 µM) | 4 (≈ 2.42 µM) | MIC [2]: 32 µg/mL (≈ 19.4 µM); MIC [5]: ≥128 µg/mL; MIC [6]: 16 µg/mL (≈ 9.68 µM); MIC [21]: 4 µg/mL (≈ 2.42 µM); MIC [22]: 4 µg/mL (≈ 2.42 µM); MIC [23]: 4 µg/mL (≈ 2.42 µM); MIC [24]: 4 µg/mL (≈ 2.42 µM); MIC [25]: 4 µg/mL (≈ 2.42 µM); MIC [26]: 4 µg/mL (≈ 2.42 µM); MIC [27]: 4 µg/mL (≈ 2.42 µM); MIC [28]: 8 µg/mL (≈ 4.84 µM); MIC [32]: 16 µg/mL (≈ 9.68 µM); MIC [33]: 16 µg/mL (≈ 9.68 µM); MIC [34]: 8 µg/mL (≈ 4.84 µM); MIC [35]: 8 µg/mL (≈ 4.84 µM); MIC [36]: 16 µg/mL (≈ 9.68 µM); MIC [37]: 16 µg/mL (≈ 9.68 µM); MIC [38]: 16 µg/mL (≈ 9.68 µM); MIC [39]: 32 µg/mL (≈ 19.4 µM); MIC [40]: 32 µg/mL (≈ 19.4 µM) |
| CCCCCCCCCCCCC(=O)N[C@H](CCCN)C(=O)N[C@H](C(=O)N[C@@H]1C(=O)N[C@H](CCCN)C(=O)N[C@@H](CO)C(=O)N[C@@H](Cc2ccc(O)cc2)C(=O)N[C@H](CCCCN)C(=O)N[C@H](CO)C(=O)N[C@@H]([C@@H](C)CC)C(=O)N2CCC[C@H]2C(=O)N[C@@H]([C@@H](C)CC)C(=O)N2CCC[C@H]2C(=O)N[C@@H]([C@@H](C)CC)C(=O)O[C@@H]1C)C(C)C [Compound A D-form] (Tridecanoyl-[dOrn]VT[dOrn]SY[dK][dS]IPIPI; ester 3-C) | 4 (≈ 2.46 µM) | 8 (≈ 4.93 µM) | 32 (≈ 19.7 µM) | 16 (≈ 9.85 µM) | 64 (≈ 39.4 µM) | 32 (≈ 19.7 µM) | 8 (≈ 4.93 µM) | 8 (≈ 4.93 µM) | 8 (≈ 4.93 µM) | 8 (≈ 4.93 µM) | 8 (≈ 4.93 µM) | 8 (≈ 4.93 µM) | 8 (≈ 4.93 µM) | 8 (≈ 4.93 µM) | 8 (≈ 4.93 µM) | 8 (≈ 4.93 µM) | 16 (≈ 9.85 µM) | 8 (≈ 4.93 µM) | 8 (≈ 4.93 µM) | 4 (≈ 2.46 µM) | MIC [2]: 16 µg/mL (≈ 9.85 µM); MIC [5]: 32 µg/mL (≈ 19.7 µM); MIC [6]: 8 µg/mL (≈ 4.93 µM); MIC [21]: 4 µg/mL (≈ 2.46 µM); MIC [22]: 8 µg/mL (≈ 4.93 µM); MIC [23]: 4 µg/mL (≈ 2.46 µM); MIC [24]: 8 µg/mL (≈ 4.93 µM); MIC [25]: 8 µg/mL (≈ 4.93 µM); MIC [26]: 4 µg/mL (≈ 2.46 µM); MIC [27]: 4 µg/mL (≈ 2.46 µM); MIC [28]: 4 µg/mL (≈ 2.46 µM); MIC [32]: 8 µg/mL (≈ 4.93 µM); MIC [33]: 8 µg/mL (≈ 4.93 µM); MIC [34]: 8 µg/mL (≈ 4.93 µM); MIC [35]: 8 µg/mL (≈ 4.93 µM); MIC [36]: 8 µg/mL (≈ 4.93 µM); MIC [37]: 16 µg/mL (≈ 9.85 µM); MIC [38]: 8 µg/mL (≈ 4.93 µM); MIC [39]: 16 µg/mL (≈ 9.85 µM); MIC [40]: 8 µg/mL (≈ 4.93 µM) |
| CCCCCCCCCCCCC(=O)N[C@H](CCCN)C(=O)N[C@H](C(=O)N[C@@H]1C(=O)N[C@H](CCCN)C(=O)N[C@@H](CO)C(=O)N[C@@H](Cc2ccc(O)cc2)C(=O)N[C@@H](CCCCN)C(=O)N[C@H](CO)C(=O)N[C@@H]([C@@H](C)CC)C(=O)N2CCC[C@H]2C(=O)N[C@@H]([C@@H](C)CC)C(=O)N2CCC[C@H]2C(=O)N[C@@H]([C@@H](C)CC)C(=O)O[C@@H]1C)C(C)C [Compound A L-form] (Tridecanoyl-[dOrn]VT[dOrn]SYK[dS]IPIPI; ester 3-C) | 4 (≈ 2.46 µM) | 8 (≈ 4.93 µM) | 64 (≈ 39.4 µM) | 8 (≈ 4.93 µM) | ≥128 | ≥128 | 8 (≈ 4.93 µM) | 8 (≈ 4.93 µM) | 4 (≈ 2.46 µM) | 8 (≈ 4.93 µM) | 8 (≈ 4.93 µM) | 4 (≈ 2.46 µM) | 8 (≈ 4.93 µM) | 8 (≈ 4.93 µM) | 8 (≈ 4.93 µM) | 8 (≈ 4.93 µM) | 32 (≈ 19.7 µM) | 4 (≈ 2.46 µM) | 4 (≈ 2.46 µM) | 4 (≈ 2.46 µM) | MIC [32]: 8 µg/mL (≈ 4.93 µM); MIC [33]: 8 µg/mL (≈ 4.93 µM); MIC [34]: 8 µg/mL (≈ 4.93 µM); MIC [35]: 8 µg/mL (≈ 4.93 µM); MIC [36]: 8 µg/mL (≈ 4.93 µM); MIC [37]: 16 µg/mL (≈ 9.85 µM); MIC [38]: 8 µg/mL (≈ 4.93 µM); MIC [39]: 16 µg/mL (≈ 9.85 µM); MIC [40]: 16 µg/mL (≈ 9.85 µM) |
